Marks after values point to notes of the source that are not given here.
Key:
absence seizures [1] = experiment: Open-label clinical study: number of absence seizures during EEG; format: in vivo, human; design: reduction of absence seizures on EEG: concentration or dose not given beside the values
Source text: The secondary objectives are to evaluate EEG changes in patients with absence epilepsy; to evaluate changes in quality of life for patients; and to evaluate global impression change and clinical impression of change. The secondary outcome measures include median percent change in the number of absence seizures on EEG, and bursts of spike/wave lasting 2 or more seconds in patients treated with flunarizine compared with the baseline period; Clinical and Patient Global Impression of Change scores during the flunarizine treatment period; median percent change in weekly absence seizure frequency from baseline compared to end of study period; and median percent change in weekly absence seizure frequency from flunarizine treatment period.

absence seizures [2] = experiment: Open-label clinical study: absence seizure frequency from patient seizure diaries; format: in vivo, human
Source text: Seizure frequency is documented via seizure diaries and side effects and safety are closely monitored. This study informs the feasibility and utility of conducting a larger clinical trial.
Objectives: The primary objective is to assess the efficacy, safety and tolerability of flunarizine compared to a baseline period on absence seizures in patients with treatment refractory generalized epilepsy taking a minimum of one anti-seizure medication (ASM).
This is an open-label, single-centre study to evaluate the clinical efficacy, safety and tolerability of flunarizine administered as adjunctive treatment in participants diagnosed with treatment resistant absence epilepsy. The study includes 20 participants.
Inclusion Criteria: Participants eligible for this study meet all of the following criteria: • 1. Participant is 4 to 18 years of age • 2. Participant has treatment resistant absence seizures. Treatment resistant absence seizures are defined as failure to respond to […] appropriate anti-seizure medications (ASMs). […] Participant must currently be taking a minimum of one ASM • 4. Normal development (may have specific learning disabilities and/or ADHD/ADD) • 5. EEG confirmation of absence seizures and EEG within 2 months of screening visit • 6. Absence seizures reported at least 10 times per week • 7. Participants must have no changes in baseline ASMs for 1 month prior to screening period • 8. Participant or caregiver can maintain a seizure diary • 9. Participant is able to swallow capsules • 10. Written informed consent must be provided. Legal guardians of the participants must be able to understand and provide written consent on behalf of the participant, since study participants may be too young to provide informed consent. For participants 7-18 years of age, assent is required along with written informed consent of the caregiver. • 11. The participant is willing and able to attend all study visits • 12. Participant has the ability to speak and read in English • 13. Females of child bearing potential who are sexually active must be willing to use contraceptive methods for the duration of the study and 6 months post last dose of study drug. • 14. Males who are sexually active with females of child bearing potential must be willing to use contraception for the duration of the study and 3 months post last dose of study drug.
The initial dose of flunarizine at Visit 2 is 5 mg/day taken at night. The dose is taken orally as one 5 mg capsule. In order to optimize response to treatment, dose escalation, at the discretion of the investigator, is performed at Visit 3. If the 5 mg/day dose is tolerated by any given participant, the dose is escalated to 10 mg/day taken as two 5 mg capsules. […] The investigator uses discretion to maintain or adjust the dose level based on the study participant's tolerability and clinical response, alongside other medical considerations. If deemed necessary by the investigator, the 10 mg dose is be split into morning and evening doses to reduce minor side effects.
At the screening visit, the seizure history is assessed using detailed parental interviews and chart review. The investigator takes the participant's medical history (including date of seizure onset date of epilepsy diagnosis). The participant's vital signs (temperature, blood pressure and heart rate), height and weight are recorded.

[3] = Open-label clinical study: safety, tolerability and questionnaires

For `Fc1ccc(C(c2ccc(F)cc2)N2CCN(C/C=C/c3ccccc3)CC2)cc1` [Flunarizine, 1-[bis(4-fluorophenyl)methyl]-4-cinnamyl-piperazine], the “absence seizures on EEG” value (absence seizures [1]; 2 of the three CAE subjects) was “resolution of absence seizures”, the “% Reduction in Seizures (EEG)” value (absence seizures [1]; Patient 1 (Jeavons)) was 11% and the “Number of Absence Seizures during EEG, Visit 5” value (shortened to “Number”) (absence seizures [1]; Patient 1 (Jeavons), baseline 9) was 8. The “% Reduction in Seizures (EEG)” value (absence seizures [1]; Patient 3 (CAE)) was 94%, the “Number” value (absence seizures [1]; Patient 3 (CAE), baseline 16) was 1 and the “% Reduction in Seizures (EEG)” value (absence seizures [1]; Patient 4 (CAE)) was 100%. The “Number” value (absence seizures [1]; Patient 4 (CAE), baseline 7) was 0, the “% Reduction in Seizures (EEG)” value (absence seizures [1]; Patient 5 (CAE)) was 100% and the “Number” value (absence seizures [1]; Patient 5 (CAE), baseline 5) was 0. The “% Reduction in Seizures (EEG)” value (absence seizures [1]; Patient 6 (JAE), 10 mg) was 50 to 100%***, the “Number” value (absence seizures [1]; Patient 6 (JAE), 10 mg, baseline 6) was 3 and the “reduction of absence seizures on EEG” value (absence seizures [1]; one of the three CAE subjects) was 94%. For the same compound, the “reduction in seizures, EEG data” value (absence seizures [1]; single JAE subject) was 50 to 100%, the “reduction in diary recorded seizures” value (absence seizures [2]; 2 of the 3 CAE patients) was greater than 80% and the “Seizure Frequency at visit 5” value (absence seizures [2]; Patient 1, Jeavons, 10 mg daily, current ASMs VPA, CLON, baseline 409 per month) was 608. The “% Reduction in Seizures” value (absence seizures [2]; Patient 1, Jeavons, 10 mg daily, printed as Increase) was roughly 50%, the “% Reduction in Seizures” value (absence seizures [2]; Patient 3, CAE, 10 mg daily) was 85% and the “Seizure Frequency at visit 5” value (absence seizures [2]; Patient 3, CAE, 10 mg daily, current ASMs LTG, ESM, ketogenic diet, baseline 41 per month) was 6. For the same compound, the “% Reduction in Seizures” value (absence seizures [2]; Patient 4, CAE, 10 mg daily) was 57%, the “Seizure Frequency at visit 5” value (absence seizures [2]; Patient 4, CAE, 10 mg daily, current ASM LTG, baseline 79 per month) was 34 and the “% Reduction in Seizures” value (absence seizures [2]; Patient 5, CAE, 5 mg daily) was 83%. For the same compound, the “Seizure Frequency at visit 5” value (absence seizures [2]; Patient 5, CAE, 5 mg daily, current ASM VPA, baseline 54 per month) was 9, the “reduction in diary recorded seizures” value (absence seizures [2]; all 3 CAE patients) was greater than 50% and the change in seizures (absence seizures [2]; one of the two patients with Jeavons Syndrome) was “increased seizures”. The study termination (absence seizures [2]; the other patient with Jeavons Syndrome) was “terminated within one week due to increase in seizures”, the response to flunarizine (absence seizures [2]; the two patients with Jeavons Syndrome) was “did not respond” and the “Depressive symptoms and somnolence” value ([3]; human, in vivo) was “not observed in any patient”. The tolerability ([3]; patients 4 to 18 years, 5 or 10 mg/day oral) was “well tolerated” and the side effect ([3]; resulting in medication discontinuation) was “weight gain as the only side effect in one patient”.

Reference: US20220193070A1, “METHODS FOR TREATING ABSENCE SEIZURES” (XENON PHARMACEUTICALS INC., priority 2020, published 2022)
